# Reference: the supplement of paper PMC11281043
# ± gives the standard deviation of the averaged measurements.
# Key:
# Conditions in all cases: exposure: 6-8 hpf to 5 dpf, scored at 6 dpf
# Danio rerio embryo/larva [1] = test: max % larvae with any abnormality across tested concentrations; max tested concentration (log10 uM): 2; higher = more toxic; extreme values may be limits of the assay
# Danio rerio embryo/larva [2] = test: max % larvae unhatched across tested concentrations; max tested concentration (log10 uM): 2; higher = more toxic
# Danio rerio embryo/larva [3] = test: max % larvae dead across tested concentrations; max tested concentration (log10 uM): 2; higher = more toxic; extreme values may be limits of the assay
Compound,max % larvae (Danio rerio embryo/larva [1]),max % larvae unhatched across tested concentrations (Danio rerio embryo/larva [2]),max % larvae dead across tested concentrations (Danio rerio embryo/larva [3])
NC(=O)C(F)(F)C(F)(F)C(F)(F)C(F)(F)F [Nonafluoropentanamide],0%,0%,0%
OCC(F)(F)C(F)(F)C(F)(F)F [3:1 Fluorotelomer alcohol],8.33%,0%,0%
"FC(F)(F)C(F)(F)CNCC(F)(F)C(F)(F)F [Bis(1H,1H-perfluoropropyl)amine]",16.7%,0%,0%
O=C(O)C(F)(F)C(F)(F)F [Perfluoropropanoic acid],0%,0%,0%
C=C(C)C(=O)OCCC(F)(F)C(F)(F)C(F)(F)C(F)(F)C(F)(F)C(F)(F)F [2-(Perfluorohexyl)ethyl methacrylate],0%,0%,0%
FC(F)(F)C(F)(F)C(F)(F)C(F)(F)C(F)(F)C(F)(F)I [Perfluoro-1-iodohexane],0%,0%,0%
O=C(O)C(F)(F)C(F)(F)C(F)F [4H-Perfluorobutanoic acid],0%,0%,0%
NC(=O)C(F)(F)C(F)(F)F [Pentafluoropropionamide],0%,0%,0%
"O=C(O)C(F)(F)OC(F)(F)C(F)(F)OC(F)(F)C(F)(F)OC(F)(F)F [Perfluoro-3,6,9-trioxadecanoic acid]",100%,0%,16.7%
COC(=O)C(F)(F)C(F)(F)C(F)(F)C(F)(F)C(F)(F)F [Methyl perfluorohexanoate],0%,0%,0%
"NCC(F)(F)C(F)(F)C(F)(F)C(F)(F)C(F)(F)C(F)(F)C(F)(F)F [1H,1H-Perfluorooctylamine]",33.3 ± 47%,0%,8.33 ± 12%
NC(=O)C(F)(F)C(F)(F)C(F)(F)F [Heptafluorobutyramide],25%,0%,16.7%
O=S(=O)(O)CCC(F)(F)C(F)(F)C(F)(F)C(F)(F)F [4:2 Fluorotelomer sulfonic acid],0%,0%,0%
"O=C(O)CCC(F)(C(F)(F)F)C(F)(F)F [4,4-bis(Trifluoromethyl)-4-fluoropropanoic acid]",16.7%,0%,16.7%
FC(F)(F)COC(OCC(F)(F)F)OCC(F)(F)F [tris(Trifluoroethoxy)methane],0%,0%,0%
O=C(Cl)C(F)(F)C(F)(F)C(F)(F)C(=O)Cl [Hexafluoroglutaryl chloride],0%,0%,0%
C=CC(=O)OCCC(F)(F)C(F)(F)C(F)(F)C(F)(F)C(F)(F)C(F)(F)C(F)(F)C(F)(F)F [2-(Perfluorooctyl)ethyl acrylate],0%,0%,0%
O=C(O)C(F)(F)C(F)(F)C(F)(F)F [Perfluorobutanoic acid],20%,0%,0%
